Data: US10314813B2, “Antimicrobial compositions for Clostridium difficile” (University of Central Florida Research Foundation, Inc., priority 2017, dated 2019)

Legend:
[1] = tested on: Clostridium difficile 630; test: MIC broth dilution per CLSI M11-A8, modified Brucella broth; type: cell-based; conditions: strain 630; Brucella broth mix + yeast, no blood/hemin; n = 12
Protocol: (§1) MIC experiments for Puupehenone were carried out in accordance with CLSI M11-A8 for broth dilutions. The levels of antimicrobial were achieved via serial dilution and listed as follows; 32 ug/mL, 16 ug/mL. 8 ug/mL, 4 ug/mL, 2 ug/mL, 1 ug/mL, 0.5 ug/mL, 0.25 ug/mL, 0.125 ug/mL, 0.0625 ug/mL/. Metranidazole was used a positive control. The only deviation from the CLSI was a modification to the media. […] This was noted due to comparisons with previous BHIS experiments. Thus, the media was modified to resemble the BHIS media, with only Brucella broth mix (28 g/L) and yeast (5 g/L). The reason for the decreased efficacy of the drug when in blood based media is still being investigated. The MICs against different C. difficile strains (ATCC9689, NAP1027, and 630 were determined for both Puupehone and Matranidazole See Table 1.

[2] = tested on: Clostridium difficile NAP1027; test: as above; type: cell-based; conditions: strain NAP1027; Brucella broth mix + yeast, no blood/hemin; n = 12
Protocol: as §1

[3] = tested on: Clostridium difficile ATCC 9689; test: as above; type: cell-based; conditions: strain ATCC 9689; Brucella broth mix + yeast, no blood/hemin; n = 12
Protocol: as §1

[4] = tested on: C. difficile strain VPI 10463 or strain ATCC 9689; test: 96-well growth inhibition test in BHIS media, optical density readout; type: cell-based, Clostridium difficile; conditions: puupehenone in MeOH, 40 μL-well, Trial 1 (0 μL-well 0.0816)
Protocol: Tests were performed in a Coy anaerobic chamber (Coy Labs Grass Lake, Mich.). The compound Puupehenone was dissolved in either methanol or DMSO for testing. Using a 96-well plate, 200 μL of BHIS media was added to 12 wells. One was the control (BHIS media alone). The sequential nine wells have increments of 5 μL of puupehenone. The remaining two wells have no puupehenone but one has 20 μL and another has 40 μL of methanol. These last wells are a separate test to determine if methanol influences the growth of C. difficile. Then 10 μL of C. difficile strain VPI 10463 or strain ATCC 9689 was added to each well except for the control. Trials with DMSO were performed in increments of 2 μL of puupehenone. Effects of puupehenone on C. difficile were tested based on optical density (e.g. OD500 nm, OD600 nm or OD630 nm, inter alia) using an optical reader as is standard in the art. Results

## Cc1ncc([N+](=O)[O-])n1CCO [Metranidazole, reference compound]
[1]
  MIC: 0.5 µg/mL
[2]
  MIC: 0.25 µg/mL
[3]
  MIC: 0.25 µg/mL

## CC1(C)CCC[C@]2(C)[C@H]3C=C4C=C(O)C(=O)C=C4O[C@@]3(C)CC[C@@H]12 [Puupehenone, puupehenone]
[1]
  MIC: 8 µg/mL
[2]
  MIC: 8 µg/mL
[3]
  MIC: 4 µg/mL
[4]
  optical density (growth of C. difficile): 0.0742
